Consider 3 compounds from patent US20240261292A1, “COMBINATION THERAPIES” (Janssen Pharmaceutica NV, priority 2021, published 2024).

The subject of one data set is OCI-AML3 tumors. The note with it: established OCI-AML3 tumors, NSG mice, 4 weeks; Azacitidine 2 mg/kg ip QD × 7; Compound A1 30 mg/kg po QD × 28.
Data set [1] has as its system MOLM-13 tumors. The note with it: established MOLM-13 tumors, NSG mice, 4 weeks; Azacitidine 2 mg/kg ip QD × 7; Compound A1 10 mg/kg po QD × 28.
Protocol: 11) Efficacy of Menin-MLL Inhibitor in Combination with Azacitidine, in MOLM-13 (KMT2A-r) IV Model in NSG Mice
Each mouse received an injection of 1×10^5 MOLM-13 cells, and all other parameters were conducted as described for experiment (10).
Data set [2] is described as follows: Metabolic stability in mouse liver microsomes. Format: in vitro ADME. Conditions: liver microsomes, pH 7.4, 0.5 mg/mL microsomes protein, read-out: Mouse LM Clint. The method, then:
4) Metabolic Stability in Human/Mouse Liver Microsomes
The objective of this study is to measure in vitro metabolic stability of test compound(s) in human and mouse liver microsomes and provide quantitative information on the rate of metabolic turnover (i.e., determination of the apparent intrinsic clearance of test).
Test items were prepared at a stock concentration of 10 mM in DMSO. For determination of metabolic turnover, a final working solution was prepared by adding 2 μL of 10 mM DMSO stock solution for test compound or positive control compounds to 198 μL of acetonitrile (100 μM final concentration).
Incubations were performed as follows: First, liver microsomes were thawed on ice and a master solution containing liver microsomes in 100 mM PBS (phosphate-buffered saline) at pH 7.4 is prepared. Next, the liver microsomes solution was added to the incubation plates and 10 mM NADPH (Nicotinamide-adenine dinucleotide phosphate) was added (MW: 833.4 g/mol; Roche Diagnostics GmbH1, Germany. Dissolved in phosphate buffer (100 mmol/L, pH 7.4)). The mixture was mixed for 10 seconds and pre-warmed in the incubation plate at 37° C. for 10 minutes. The metabolic reaction was initiated with the addition of 5 μL of the 100 μM working solution for test compound or positive control compounds to incubation plate (final test item concentration=1 μM). The reaction final mixture should contain 1 mM NADPH, 0.5 mg/mL microsomes protein and 1 μM test compound or positive control compound in 100 mM PBS at pH 7.4. The percentage of organic solvent in incubation mixture is 1% with DMSO 0.02%.
The reaction was quenched by transferring 50 μL of the incubated mixture at selected time points into the quenching plate containing 200 μL of cold methanol. […]
All calculations were carried out using Microsoft Excel. The slope value, k, was determined by linear regression of the natural logarithm of the remaining percentage of the parent drug vs. incubation time curve.
The in vitro half-life (in vitro t1/2) was determined from the slope value: […]
For orientation: Liver microsomes are a subcellular fraction often used to study metabolism.

Data set [3] is described as follows: Mouse PK (in vivo T1/2 and oral bioavailability). Conditions: male, CD-1, mouse, in vivo, fasted male CD-1 mice, formulating agent: A HP-β-CD, A3 Pyrogen free water. As to the method: 3) Mouse PK (In Vivo T1/2 and Oral Bioavailability)
In vivo pharmacokinetics (PK) were assessed in fasted male CD-1 mice (age 6-8 weeks) following a single intravenous (IV, 0.5 or 1.0 mg/kg administered at 2.5 ml/kg) or oral (PO, 5 mg/kg administered at 10 ml solution/kg) dose of test article formulated in a 20% (w:vol) HP-β-CD solution or in Pyrogen free water.
Plasma and/or whole blood samples were collected from the dorsal metatarsal vein at desired timepoints via serial capillary microsampling (approx. 0.03 mL) using EDTA as an anticoagulant. Concentrations of compound in the plasma and blood samples were analyzed using a qualified LC-MS/MS method. In silico analysis of main pharmacokinetic parameters was performed using WinNonlin (Phoenix™, version 6.1) or similar software.)

The target of another data set is hERG potassium channel (Homo sapiens (Human), UniProt Q12809). Kind of data set: Membrane potassium current IKr in hERG transfected CHO cells (Protocol 1, QPatch). In kind it is cell-based. Conditions: Protocol 1, CHO cells. As to the method: Experiments were performed using CHO cells stably expressing the hERG potassium channel. Cells were grown at 37° C. and 5% CO2 in culture flasks in Ham's F12 Medium supplemented with 10% heat-inactivated fetal calf serum, hygromycin B (100 μg/ml) and geneticin (100 μg/ml). For use in the automated patch-clamp system QPatch (Sophion) cells were harvested to obtain cell suspension of single cells. […]
Sequence of hERG potassium channel (Q12809 whole entry): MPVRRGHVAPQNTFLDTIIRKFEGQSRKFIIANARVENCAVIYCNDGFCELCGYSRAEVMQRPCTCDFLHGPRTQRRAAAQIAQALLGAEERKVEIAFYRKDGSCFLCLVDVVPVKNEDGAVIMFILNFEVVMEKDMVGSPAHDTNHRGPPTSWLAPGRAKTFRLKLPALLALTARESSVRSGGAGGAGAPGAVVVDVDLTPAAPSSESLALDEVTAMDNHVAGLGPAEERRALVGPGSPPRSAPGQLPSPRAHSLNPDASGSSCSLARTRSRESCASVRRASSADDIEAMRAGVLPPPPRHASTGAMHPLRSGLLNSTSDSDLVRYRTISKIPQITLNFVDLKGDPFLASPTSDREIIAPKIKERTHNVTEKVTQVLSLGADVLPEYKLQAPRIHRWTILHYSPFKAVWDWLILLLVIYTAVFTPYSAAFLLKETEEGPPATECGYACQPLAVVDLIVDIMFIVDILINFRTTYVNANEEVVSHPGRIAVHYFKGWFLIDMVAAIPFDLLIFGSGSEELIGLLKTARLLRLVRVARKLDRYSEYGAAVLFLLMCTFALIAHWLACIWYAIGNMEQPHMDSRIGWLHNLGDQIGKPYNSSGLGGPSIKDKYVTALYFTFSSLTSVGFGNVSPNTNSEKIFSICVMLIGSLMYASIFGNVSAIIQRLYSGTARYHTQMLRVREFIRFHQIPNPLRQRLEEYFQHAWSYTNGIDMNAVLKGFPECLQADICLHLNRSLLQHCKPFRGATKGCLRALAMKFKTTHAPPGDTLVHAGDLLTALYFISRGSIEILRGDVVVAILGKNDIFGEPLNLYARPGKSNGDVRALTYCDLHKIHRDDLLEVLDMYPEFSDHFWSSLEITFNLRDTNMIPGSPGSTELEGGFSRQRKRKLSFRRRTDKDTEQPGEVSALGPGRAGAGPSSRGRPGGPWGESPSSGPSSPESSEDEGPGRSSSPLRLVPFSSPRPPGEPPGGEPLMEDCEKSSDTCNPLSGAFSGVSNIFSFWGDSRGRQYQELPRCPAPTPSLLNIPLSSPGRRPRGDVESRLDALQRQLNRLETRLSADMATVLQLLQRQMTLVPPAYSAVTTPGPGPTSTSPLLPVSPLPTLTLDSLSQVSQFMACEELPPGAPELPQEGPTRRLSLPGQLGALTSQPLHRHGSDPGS
Patch-clamp experiments were performed in the voltage-clamp mode and whole-cell currents were recorded with an automated patch-clamp assay utilizing the QPatch system (Sophion). Current signals were amplified and digitized, stored and analyzed by using the QPatch assay software.
The holding potential was −80 mV. The hERG current (K^+-selective outward current) was determined as the maximal tail current at −40 mV after a 2 second depolarization to +60 mV. […] The effect of each concentration was determined after 5 min as an average current of 3 sequential voltage pulses. […]
Concentration/response relations were calculated by non-linear least-squares fits to the individual data points. The half-maximal inhibiting concentration (IC50) was calculated by the fitting routine.

The test system of data set [4] is MOLM-13 tumors. Kind of data set: Efficacy of menin-MLL inhibitor in combination with gilteritinib in MOLM-13 (KMT2A-r) IV model. In kind it is in vivo. Conditions: established MOLM-13 tumors, NSG mice, 4 weeks; Gilteritinib 10 mg/kg po QD × 28; Compound A1 10 mg/kg po QD × 28. From the text: 12) Efficacy of Menin-MLL Inhibitor in Combination with Gilteritinib, in MOLM-13 (KMT2A-r) IV Model in NSG Mice

Read-outs that look alike come from different tables or passages of the source.

Protocol for OCI-AML3 tumors: For survival assessment, results were plotted as the percentage survival against days post tumor implant. Negative clinical signs and/or ≥20% body weight loss was used as a surrogate endpoint for death. Median survival was determined utilizing Kaplan-Meier survival analysis. The percent increased life span (ILS) was calculated as: ((median survival day of treated group—median survival day of control group)/median survival day of control group)×100. Animals failing to reach the surrogate endpoint due to adverse clinical signs (such as ulcerated tumors, body weight loss, etc.) or death unrelated to treatment were censored for the survival assessment.

For `Nc1ncn([C@@H]2O[C@H](CO)[C@@H](O)[C@H]2O)c(=O)n1` [Azacitidine], the “% ILS” value in the data set on OCI-AML3 tumors is given as “*18%”; in the data set with MOLM-13 tumors [1], “*35%”.

A word on the half-life: it is the time in which the quantity being followed falls by half. A lower half-life goes with rapid decline. The bioavailability is dose-corrected exposure relative to a reference, in per cent. The IC50 is the concentration that gives 50% inhibition. As to `CCN(C(=O)c1cc(F)ccc1Oc1nncnc1N1CCC2(C1)CN([C@H](CCCN(C)CCOC)C(C)C)C2)C(C)C` [Compound A, (R)-N-ethyl-5-fluoro-N-isopropyl-2-((5-(2-(6-((2-methoxyethyl) (methyl)amino)-2-methylhexan-3-yl)-2,6-diazaspiro[3.4]octan-6-yl)-1,2,4-triazin-6-yl)oxy) benzamide], the microsomal CLint at 1 μM in data set [2] was below 7.5 µL/min/mg. Further, the half-life in data set [3] (iv, 1 mg/kg, single IV 0.5 or 1.0 mg/kg) is 6.7 h. For the same compound, the bioavailability in data set [3] (po, 5 mg/kg, single PO 5 mg/kg) was found to be 17%. Further, the IC50 at hERG potassium channel is above 30.2 µM.

Take `CCc1nc(C(N)=O)c(Nc2ccc(N3CCC(N4CCN(C)CC4)CC3)c(OC)c2)nc1NC1CCOCC1` [Gilteritinib, gilteritinib]: the “% ILS” value in the data set on MOLM-13 tumors [4] is “*63%”.
